Results reported in US10300067B2, “Tetrahydropyridopyrimidine compound or salt thereof” (TAIHO PHARMACEUTICAL CO., LTD., priority 2014, dated 2019).

Legend:
[1] = tested on: Human prostate cancer cells LNCaP; assay: Androgen-dependent inhibitory activity on proliferation of prostate cancer cells; type: cell-based; details: 50% proliferation inhibition concentration, DHT 10 nmol/L, 72 hours, read-out: GI50 value
Description: Human prostate cancer cells LNCaP (Non-Patent Literature 5) having […] androgen receptor gene were seeded in a clear bottom 96 well microplate (BD) at 4.0×10^3/well with phenol red free RPMI1640 containing 5% DCC-FBS (hereinbelow, the medium is referred to as an evaluation medium), and then cultured overnight. The culture was added with the evaluation medium containing DHT (final concentration of DHT: 10 nmol/L) or the evaluation medium containing the compound of Examples or the compound of Comparative Examples (final concentration of the compound of Examples or the compound of Comparative Examples: 10, 30, 100, 300, 1000, 3000, 10000, or 30000 nmol/L), followed by culture for 72 hours. Then, the number of viable cells was counted. The number of viable cells was measured by using Cell Counting Kit-8 (DOJINDO LABORATORIES).

[2] = tested on: LNCaP-Xeno-IL-6 cells; assay: Anti-tumor activity in in vivo model of castration resistant prostate cancer; details: castrated male nude mice, oral, every day for 2 weeks
Description: From the AR positive human prostate cancer cells LNCaP, castration resistant prostate cancer cells, LNCaP-Xeno-IL-6 cells, were established based on the scientific paper (Clin Cancer Res, 2001 7:2941-8) (in the paper, the cells have been reported as LNCaP-IL-6+ cells) and used for the in vivo test. The LNCaP-Xeno-IL-6 cells were implanted subcutaneously in male nude mice, and the castration treatment was performed when the tumor volume reached about 200 mm^3. After the castration, the vehicle only (0.5% HPMC) or the compound of Examples suspended in the vehicle was orally administered to the mice every day for 2 weeks. The compound of Examples was administered such that there was no difference in an exposure amount between the compounds. After the administration for 2 weeks, the tumor volume of each mouse was recorded and the average tumor volume of the group administered with the evaluation compound relative to the average tumor volume of the group administered only with the vehicle, that is, T/C (%), was calculated based on the following formula. T/C (%)=(Average tumor volume of evaluation compound group)/(Average tumor volume of vehicle administration group)

[3] = biological target: human androgen receptor (Homo sapiens (Human), UniProt P10275); assay: Antagonist activity for AR (pMMTV-luc reporter transcription activity in transfected COS-7 cells, DHT 1 nmol/L); type: cell-based; details: 50% transcription activity inhibition concentration; COS-7 cells with pMMTV-luc and pEX-hAR, DHT 1 nmol/L, 24 hours
human androgen receptor, sequence (P10275 whole entry): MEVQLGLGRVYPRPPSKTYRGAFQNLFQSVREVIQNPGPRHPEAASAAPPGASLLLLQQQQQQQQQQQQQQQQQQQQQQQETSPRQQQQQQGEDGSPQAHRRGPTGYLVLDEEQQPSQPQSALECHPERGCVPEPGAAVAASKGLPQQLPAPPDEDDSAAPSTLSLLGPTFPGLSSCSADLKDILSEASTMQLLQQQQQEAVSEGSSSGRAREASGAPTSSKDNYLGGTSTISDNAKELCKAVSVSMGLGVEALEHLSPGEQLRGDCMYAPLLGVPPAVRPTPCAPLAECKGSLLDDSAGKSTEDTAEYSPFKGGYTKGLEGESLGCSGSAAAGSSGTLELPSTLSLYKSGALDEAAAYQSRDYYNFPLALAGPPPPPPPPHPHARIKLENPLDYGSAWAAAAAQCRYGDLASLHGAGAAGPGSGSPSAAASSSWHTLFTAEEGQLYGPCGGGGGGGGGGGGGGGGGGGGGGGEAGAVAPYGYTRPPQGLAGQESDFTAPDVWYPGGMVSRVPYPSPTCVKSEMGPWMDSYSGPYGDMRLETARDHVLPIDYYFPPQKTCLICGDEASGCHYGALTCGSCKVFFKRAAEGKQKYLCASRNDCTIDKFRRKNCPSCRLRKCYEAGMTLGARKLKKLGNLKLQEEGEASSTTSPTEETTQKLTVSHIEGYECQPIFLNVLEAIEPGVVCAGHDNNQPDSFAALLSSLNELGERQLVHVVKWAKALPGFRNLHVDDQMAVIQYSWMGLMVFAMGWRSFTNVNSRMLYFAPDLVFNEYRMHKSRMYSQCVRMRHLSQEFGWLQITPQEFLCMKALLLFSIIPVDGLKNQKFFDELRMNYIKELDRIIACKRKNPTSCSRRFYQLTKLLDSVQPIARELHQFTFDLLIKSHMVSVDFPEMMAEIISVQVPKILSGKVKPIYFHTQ
Summary of the method: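 COS-7 cells co-transfected with pMMTV-luc reporter and CMV-driven human AR expression vector, cultured overnight in phenol red-free RPMI1640 with 10% charcoal-treated FBS. Antagonism measured against 1 nmol/L DHT by luciferase transcription activity.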

[4] = biological target: androgen receptor (Homo sapiens (Human), UniProt P10275, T878A); assay: Activity of reducing expression level of androgen receptor (Western blotting of LNCaP cell lysate); type: cell-based; details: 48 hours
androgen receptor, sequence (P10275 whole entry T878A): as the sequence (P10275 whole entry) above, with T878A counted along it
Summary of the method: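 LNCaP prostate cancer cells (AR T878A) in phenol red-free RPMI1640 with 5% FBS treated with compound at final 10000 nmol/L for 48 h. Cell lysates analysed by Western blot with anti-AR antibody; band quantified by chemiluminescence.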

[5] = tested on: AR positive human prostate cancer cells VCaP; assay: Agonist activity for AR (cell proliferation rate of VCaP cells); type: cell-based; details: 72 hours, 2 to 10000 nmol/L, more than 10% at any concentration = agonist activity for AR
Summary of the method: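 VCaP cells seeded at 1.5×10^4/well in phenol-red-free RPMI1640 with 5% DCC-FBS, then exposed 72 h to compound at 2–10000 nmol/L (9 concentrations). Viable cells counted by CellTiter-Glo; proliferation rate (%) relative to medium-only control, agonist activity called when >10% at any concentration.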

| SMILES | GI50 [1] | T/C (%) ([2]; daily dose 200 mg/kg/day) | IC50 [3] | 10 μM AR expression reducing activity [4] | Cell proliferation rate (%) [5] | T/C (%) ([2]; daily dose 15 mg/kg/day) |
| --- | --- | --- | --- | --- | --- | --- |
| N#Cc1ccc(N2CCc3c(ncnc3Nc3ccc(C(=O)NCC(F)(F)F)cn3)C2)cc1C(F)(F)F [Example 11, 6-((7-(4-cyano-3-(trifluoromethyl)phenyl)-5,6,7,8,-tetrahydropyrido[3,4-d]pyrimidin-4-yl)amino)-N-(2,2,2-trifluoroethyl)nicotinamide] | 380 nM | 47% | 30 nM | reduced (When the AR expression reducing activity is 50% or more, it is described as “reduced”) | 2.9% | – |
| CC(C)(O)c1ccc(Nc2ncnc3c2CCN(c2ccc(C#N)c(Cl)c2)C3)nc1 [Example 9, 2-chloro-4-(4-((5-(2-hydroxypropan-2-yl)pyridin-2-yl)amino)-5,6-dihydropyrido[3,4-d]pyrimidin-7 (8H)-yl)benzonitrile] | 500 nM | – | 250 nM | reduced (When the AR expression reducing activity is 50% or more, it is described as “reduced”) | −0.7% | 40% |
